Measured values from patent US20020058637A1, “Methods of inhibiting tau-protein kinase I activity, inhibiting neuronal cell death and treating alzheimer's disease and tau-protein kinase I” (priority 1993, published 2002).
Entries after “also recorded” stand apart in the source; their conditions may differ.

Legend:
hippocampus cells = experiment: Inhibiting action for the death of cranial nerve cells by AβP (living cell count, phase contrast microscope); assay type: cell-based, rat; details: for Numbers of Living Cells (%) After 6 hours / Numbers of Living Cells (%) After 21 hours: rat hippocampus cell culture, AβP 20 micromoles, oligonucleotide 1 micromole per 1 ml medium, 37° C., percentage to control
From the text: Numbers of many normal and healthy cells were counted by a phase contrast microscope as an index of the living cells after the treatment. Normal cells mean those which have morphologically flat circumference and many nerve cell projections while the degenerated cells were judged by checking the irregular shape, degeneration of the neural projections, etc. Numbers of the living cells were counted in a well. In the standard culture liquid, the cell numbers were not less than 400 per well. The result was confirmed by an immunohistochemical means.
The primary culture medium of hippocampus of rats was prepared in accordance with a method described in Brain Res., 126, 397-425 (1977). Thus, the hippocampus tissues were collected from embryo of the rats of 18 days after fertilization and digested in papain (protease) (10 U/ml) at 37° C. for 20 minutes. The resulting cells were added to a Dulbecco's modified Eagle's medium supplied with 5% bovine fetus serum, 5% horse serum, 10 micrograms/ml insulin, 0.1 mg/ml transferrin, 1 microgram/ml aprotinin, 1 mM sodium pyruvate and 84 micrograms/ml gentamycin. This was planted to a well for tissue culture covered with poly-L-lysine at the density of 2×10^5 cells/cm^2, cultured for three days and treated with 1 micromole of cytosine-beta-arabinofuranoside for 24 hours and the cells of the fifth day of the culture were used.
The culture medium of the hippocampus prepared by the above-mentioned method was subjected to the following treatments (b) to (d), numbers of the living cells with an elapse of time were counted and the result is given in Table
(a) Nontreated culture medium (control):
(b) TPKI-antisense (1 micromole) was added to 1 ml of the cell culture medium and, after five minutes, 20 micromoles of AβP was added followed by keeping at 37° C. for 24 hours.
(c) AβP (20 micromoles) was added to 1 ml of the cell cuture medium followed by keeping at 37° C. for 24 hours.
(d) TPKI-sense (1 micromole) was added to 1 ml of the cell culture medium and, after five minutes, 20 micromoles of AμP was added followed by keeping at 37° C. for 24 hours.

tau-protein = experiment: Phosphorylation of tau-protein by recombinant human TPK-I expressed in E. coli (phosphorylating method I); assay type: biochemical, bovine; details: room temperature, 20 hours
Procedure: tau-Protein extracted from bovine brain followed by purification (2 microliters; 1.5 mg/ml concentration) and 1 microliters of the above partially-purified enzyme solution were mixed. To the mixture was added a solution containing 2 mM adenosinetriphosphate and 2 mM magnesium acetate and [gamma-32P]adenosinetriphosphate so that the phosphorylation of tau-protein was conducted at room temperature for 20 hours whereby the amount of phosphoric acid incorporated in tau-protein was evaluated.

TPK-I = experiment: Phosphorylation of tau-protein by extract of treated hippocampus cells (phosphorylating activity of TPK-I); assay type: cell-based, rat; details: 24 hours
Procedure: Hippocampus cells were collected from the culture medium by washing with an ice-cooled phosphate buffer for three times. The cells were suspended in a buffer A (pH: 6.8) which contained 1 mM EGTA, 0.5 mM magnesium acetate and 20 mM 2-(N-morpholino)-ethanesulfonic acid containing a phosphatase inhibitor ([…]; manufactured by Seikagaku Kogyo) and a protease inhibitor (1 mM phenylmethylsulfonyl fluoride and each 1 micro gram/ml of leupeptin, pepstatin and aprotinin), homogenized and centrifuged at 14,000 rpm for one hour and the supernatant liquid was used for checking the phosphorylation.
The rat tau-protein expressed in E. coli BL21 by a gene recombination was purified by a method described in J. Biol. Chem., 267, 10897-10901 (1992).
The hippocampus extract (1 microliter) was added to a solution of the rat tau-protein (400 micrograms/ml) dissolved in a buffer A containing 1 mM [τ-^32P]ATP (10-20 Ci/mmole) and then 10 micromoles of okadaic acid was added to make the final volume 10 microliters. This was incubated at 37° C. for three hours and the reaction was stopped by adding a buffer for electrophoresis. After subjecting to a 10% polyacrylamide gel electrophoresis, the ^32p in the tau-protein was observed by a laser image analyzer (Fuji BAS 2000).

5′-ATGTCGGGGCGACCGAGA-3′ (listed as DNA, chemistry not given here) [TPKI-Sense, tested together with AβP, reference compound]
Numbers of Living Cells (%) After 6 hours (hippocampus cells): 49.5% | Numbers of Living Cells (%) After 21 hours (hippocampus cells): 17.1%

partially-purified TPK-I: recombinant human-originated tau-protein kinase I (Seq. ID No. 1) expressed in E. coli BL21 (DE3), partially purified
phosphoric acid incorporated into one molecule of tau-protein (tau-protein): 1.2 mol

5′-TCTCGGTCGCCCCGACAT-3′ (listed as DNA, chemistry not given here) [TPKI-Antisense, tested together with AβP]
phosphorylating activity of TPK-I relative to the case in which only AβP was acted (TPK-I; TPKI-antisense and AβP versus only AβP): about one half; also recorded: about one-half | Phosphorylating Activity of TPKI (TPK-I; hippocampus cell supernatant, AβP 20 micromoles, TPKI-antisense 1 micromole, rat tau-protein substrate): 31.6 unit/mg protein | cytotoxity by AβP observed with phase contrast microscope (hippocampus cells; TPKI-antisense and AβP on hippocampus cells, after 24 hours, magnifying power 400): little being similar to the controls; also recorded: little and similar to the case of the control | Numbers of Living Cells (%) After 6 hours (hippocampus cells): 83.0% | Numbers of Living Cells (%) After 21 hours (hippocampus cells): 72.6%
